According to patent US9468607B2, “Ligand directed toroidal nanoparticles for therapy and diagnostic imaging” (WASHINGTON UNIVERSITY, priority 2007, dated 2016):
Where two headings read alike, the source gives them in different places.

Tests used:
[1] = Drug loading efficiency by reverse phase HPLC; assay type: physicochemical; conditions: drug encapsulated in nanoparticles
Method: Amphiphilic polymer (˜30 mg) was taken up in 3 mL of anhydrous chloroform (Aldrich, Inc.) and gently vortexed for 2 min. The organic phase (with or without the presence of any contrast agent, ˜5 mL of chloroform layer) was dried (anhydrous Na2SO4). Excess of anhydrous chloroform (35 mL) was added to the organic phase and was taken in a 50 mL, long necked test tube. Doxorubicin (0.27 mg/mL) was dissolved in 5 mL of nanopure water (0.2 μM) and was injected followed by gentle vortexing for few minutes. The chloroform was then slowly evaporated under reduced pressure at 45° C. for […], maintaining the pressure at 420-440 mbar. To this, an additional 5 mL of nanopure water (0.2 μM) was injected. The dispersion was sonicated in a Branson ultra sonic bath for ½ h (until a clear dispersion formed) maintaining the bath temperature at 50° C.
Amphiphilic polymer (˜27 mg) was taken up in 3 mL of anhydrous chloroform (Aldrich, Inc.) and gently vortexed for 2 min. The organic phase (with or without the presence of any contrast agent) was dried (anhydrous Na2SO4). […]
Doxorubicin was analyzed by reversed-phase HPLC system with Waters 600S as a controller, Waters 626 pump to deliver mobile phase, Waters 717 auto sampler for injection and Waters 474 scanning fluorescence detector at wavelength ex 470 nm/em 555 nm for detection. […]

[2] = for % Drug remaining: dialysis at 37° C.; for Drug release over 3 days: from nanoparticles, dialysis against 0.9% NaCl, 0.2 mg/ml human serum albumin, 37° C.

SMILES	loading efficiency [1]	% Drug remaining ([2]; Day 1, in nanoparticles) [%]	% Drug remaining ([2]; Day 2, in nanoparticles) [%]	% Drug remaining ([2]; Day 3, in nanoparticles) [%]	Drug release over 3 days [2]
CC[C@@]1(O)C(=O)OCc2c1cc1n(c2=O)Cc2cc3ccccc3nc2-1 [Camptothecin]	99+/−0.1%	93.48	87.57	83.38	20+/−3.5%
COc1cccc2c1C(=O)c1c(O)c3c(c(O)c1C2=O)C[C@@](O)(C(=O)CO)C[C@@H]3O[C@H]1C[C@H](N)[C@H](O)[C@H](C)O1 [Doxorubicin]	98+/−0.1%	–	–	–	12+/−0.6%
